According to PMC11074101 (Cell Discovery, 2024):

Key:
Format in all cases: cell-based
[1] = target: T1, MCHR1 I265(45.52)A (Homo sapiens, UniProt Q99705, I196A); assay: GloSensor cAMP assay, MCHR1 I265A; settings: HEK293, mean ± S.E.M., n = 3 in triplicate
T1 construct: expressed in transfected cells; host or cells: HEK293
Text: (§1) The gene sequences encoding human MCHR1 (residues 70‒405) and MCHR2 (residues 1‒331, with L256^6.40Y mutation) were subcloned into pFastBac vector (Invitrogen) with an N-terminal haemagglutinin signal peptide (HA) and a thermostabilized BRIL fusion, followed by a C-terminal 15-amino acid linker, a LgBiT subunit and two MBPs to facilitate receptor expression and stability. The Gαi construct was designed with dominant-negative mutations S47N, G203A, A326S, and E245A to decrease the affinity of nucleotide-binding and stable Gαβγ complex. The mini-Gαq construct was designed with the C-terminal α-helix (αH5) of Gαq, which is critical for G protein coupling selectivity. The core of the construct, known as the Ras domain, is derived from Gαs. This design choice was made to enable the binding of the nanobody Nb35, which stabilizes the complex for cryo-EM analysis. […] Rat Gβ1 was constructed with a N-terminal 16× His-tag for purification and a C-terminal HiBiT to form a NanoBiT with LgBiT. […] The wild-type and mutants of MCHR1 and MCHR2 were constructed into the pcDNA6.0 vector […] for functional assays.
(§2) GloSensor cAMP assay was used to detect the downstream Gαi signal of MCHR1 using GloSensor cAMP Reagent (Promega).

[2] = target: T2, MCHR1 I366(7.39)A (Homo sapiens, UniProt Q99705, I297A); assay: GloSensor cAMP assay, MCHR1 I366A; settings: HEK293, mean ± S.E.M., n = 3 in triplicate
T2 construct: expressed in transfected cells; host or cells: HEK293
Text: as §1, §2

[3] = target: T3, MCHR2 I292(7.39)A (Homo sapiens, UniProt Q969V1, I292A); assay: IP-One IP1 accumulation assay, MCHR2 I292A; settings: n = 3 in triplicate
T3 construct: expressed in transfected cells; host or cells: AD293
Text: (§3) The gene sequences encoding human MCHR1 (residues 70‒405) and MCHR2 (residues 1‒331, with L256^6.40Y mutation) were subcloned into pFastBac vector (Invitrogen) with an N-terminal haemagglutinin signal peptide (HA) and a thermostabilized BRIL fusion, followed by a C-terminal 15-amino acid linker, a LgBiT subunit and two MBPs to facilitate receptor expression and stability. The Gαi construct was designed with dominant-negative mutations S47N, G203A, A326S, and E245A to decrease the affinity of nucleotide-binding and stable Gαβγ complex. The mini-Gαq construct was designed with the C-terminal α-helix (αH5) of Gαq, which is critical for G protein coupling selectivity. The core of the construct, known as the Ras domain, is derived from Gαs. This design choice was made to enable the binding of the nanobody Nb35, which stabilizes the complex for cryo-EM analysis. […]
(§4) IP1 accumulation assay was applied for the detection of the downstream Gαq signal of MCHR2 using the IP-One HTRF kit (Cisbio). […] Before measurement, the samples were incubated at RT for 30 min and measured with EnVision multi-plate reader (PerkinElmer).
(§5) Concentration–response curves were evaluated with a three-parameter logistic equation. The significance was determined with one-way ANOVA with Tukey’s test, and P < 0.05 vs wild type was considered statistically significant.

[4] = target: T4, MCHR2 S183(ECL2)A (Homo sapiens, UniProt Q969V1, S183A); assay: IP-One IP1 accumulation assay, MCHR2 S183A; settings: AD293, mean ± S.E.M., n = 3 in triplicate
T4 construct: expressed in transfected cells; host or cells: AD293
Text: as §3, §4, §5

[5] = target: T5, MCHR1 Q171(2.63)A (Homo sapiens, UniProt Q99705, Q102A); assay: GloSensor cAMP assay, MCHR1 Q171A; settings: HEK293, mean ± S.E.M., n = 3 in triplicate
T5 construct: expressed in transfected cells; host or cells: HEK293
Text: as §1, §2

[6] = target: T6, MCHR1 P354(ECL3)A (Homo sapiens, UniProt Q99705, P285A); assay: GloSensor cAMP assay, MCHR1 P354A; settings: HEK293, mean ± S.E.M., n = 3 in triplicate
T6 construct: expressed in transfected cells; host or cells: HEK293
Text: as §1, §2

[7] = target: T7, MCHR2 A185(45.51)F (Homo sapiens, UniProt Q969V1, A185F); assay: IP-One IP1 accumulation assay, MCHR2 A185F; settings: n = 3 in triplicate
T7 construct: expressed in transfected cells; host or cells: AD293
Text: as §3, §4, §5

[8] = target: T8, MCHR1 Y370(7.42)A (Homo sapiens, UniProt Q99705, Y301A); assay: GloSensor cAMP assay, MCHR1 Y370A; settings: HEK293, mean ± S.E.M., n = 3 in triplicate
T8 construct: expressed in transfected cells; host or cells: HEK293
Text: as §3
GloSensor cAMP assay was used to detect the downstream Gαi signal of MCHR1 using GloSensor cAMP Reagent (Promega). […] The sample mixtures were immediately measured with an EnVision multi-plate reader (PerkinElmer).
as §5

[9] = target: T9, MCHR2 Q271(6.55)A (Homo sapiens, UniProt Q969V1, Q271A); assay: IP-One IP1 accumulation assay, MCHR2 Q271A; settings: n = 3 in triplicate
T9 construct: expressed in transfected cells; host or cells: AD293
Text: as §3, §4, §5

[10] = target: T10, MCHR2 P280(ECL3)A (Homo sapiens, UniProt Q969V1, P280A); assay: IP-One IP1 accumulation assay, MCHR2 P280A; settings: n = 3 in triplicate
T10 construct: expressed in transfected cells; host or cells: AD293
Text: as §3, §4, §5

[11] = target: T11, MCHR2 D179(ECL2)A (Homo sapiens, UniProt Q969V1, D179A); assay: IP-One IP1 accumulation assay, MCHR2 D179A; settings: n = 3 in triplicate
T11 construct: expressed in transfected cells; host or cells: AD293
Text: as §3, §4, §5

[12] = target: T12, MCHR2 L188(ECL2)A (Homo sapiens, UniProt Q969V1, L188A); assay: IP-One IP1 accumulation assay, MCHR2 L188A; settings: AD293, mean ± S.E.M., n = 3 in triplicate
T12 construct: expressed in transfected cells; host or cells: AD293
Text: as §3, §4, §5

[13] = target: T13, MCHR2 Y285(7.32)A (Homo sapiens, UniProt Q969V1, Y285A); assay: IP-One IP1 accumulation assay, MCHR2 Y285A; settings: AD293, mean ± S.E.M., n = 3 in triplicate
T13 construct: expressed in transfected cells; host or cells: AD293
Text: as §3, §4, §5

[14] = target: T14, MCHR1 L172(2.64)A (Homo sapiens, UniProt Q99705, L103A); assay: GloSensor cAMP assay, MCHR1 L172A; settings: HEK293, mean ± S.E.M., n = 3 in triplicate
T14 construct: expressed in transfected cells; host or cells: HEK293
Text: as §1, §2

[15] = target: T15, MCHR2 Y288(7.35)A (Homo sapiens, UniProt Q969V1, Y288A); assay: IP-One IP1 accumulation assay, MCHR2 Y288A; settings: n = 3 in triplicate
T15 construct: expressed in transfected cells; host or cells: AD293
Text: as §3, §4, §5

[16] = target: T16, MCHR1 WT (Homo sapiens, UniProt Q99705); assay: GloSensor cAMP assay, MCHR1 WT (Gαi); settings: HEK293, GloSensor cAMP, normalized by WT receptor, mean ± S.E.M., n = 3 in triplicate
T16 construct: expressed in transfected cells; host or cells: HEK293
Text: as §1, §2

[17] = target: T17, MCHR1 Y341(6.51)A (Homo sapiens, UniProt Q99705, Y272A); assay: GloSensor cAMP assay, MCHR1 Y341A; settings: HEK293, mean ± S.E.M., n = 3 in triplicate
T17 construct: expressed in transfected cells; host or cells: HEK293
Text: as §1, §2

[18] = target: T18, MCHR1 Q196(3.36)A (Homo sapiens, UniProt Q99705, Q127A); assay: GloSensor cAMP assay, MCHR1 Q196A; settings: HEK293, mean ± S.E.M., n = 3 in triplicate
T18 construct: expressed in transfected cells; host or cells: HEK293
Text: as §1, §2

[19] = target: T19, MCHR2 G96(ECL1)A (Homo sapiens, UniProt Q969V1, G96A); assay: IP-One IP1 accumulation assay, MCHR2 G96A; settings: n = 3 in triplicate
T19 construct: expressed in transfected cells; host or cells: AD293
Text: as §3, §4, §5

[20] = target: T20, MCHR2 V194(5.35)A (Homo sapiens, UniProt Q969V1, V194A); assay: IP-One IP1 accumulation assay, MCHR2 V194A; settings: n = 3 in triplicate
T20 construct: expressed in transfected cells; host or cells: AD293
Text: as §3, §4, §5

[21] = AD293, IP-One HTRF, 37 °C 1 h, mean ± S.E.M., P < 0.0001 vs WT

T15 sequence (Q969V1 whole entry Y288A): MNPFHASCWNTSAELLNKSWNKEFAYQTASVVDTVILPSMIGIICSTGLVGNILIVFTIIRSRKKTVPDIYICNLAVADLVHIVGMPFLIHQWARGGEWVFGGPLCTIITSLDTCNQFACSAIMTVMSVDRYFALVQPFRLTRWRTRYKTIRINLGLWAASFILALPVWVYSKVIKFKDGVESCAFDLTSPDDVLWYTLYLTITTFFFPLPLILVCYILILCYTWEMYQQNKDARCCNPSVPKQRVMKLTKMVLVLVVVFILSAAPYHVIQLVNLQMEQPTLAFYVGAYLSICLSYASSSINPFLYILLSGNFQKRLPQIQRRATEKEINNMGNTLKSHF
T9 sequence (Q969V1 whole entry Q271A): as the sequence (Q969V1 whole entry Y288A) above, with Q271A, A288Y counted along it
T11 sequence (Q969V1 whole entry D179A): as the sequence (Q969V1 whole entry Y288A) above, with D179A, A288Y counted along it
T3 sequence (Q969V1 whole entry I292A): as the sequence (Q969V1 whole entry Y288A) above, with A288Y, I292A counted along it
T7 sequence (Q969V1 whole entry A185F): as the sequence (Q969V1 whole entry Y288A) above, with A185F, A288Y counted along it
T19 sequence (Q969V1 whole entry G96A): as the sequence (Q969V1 whole entry Y288A) above, with G96A, A288Y counted along it
T20 sequence (Q969V1 whole entry V194A): as the sequence (Q969V1 whole entry Y288A) above, with V194A, A288Y counted along it
T10 sequence (Q969V1 whole entry P280A): as the sequence (Q969V1 whole entry Y288A) above, with P280A, A288Y counted along it
T5 sequence (Q99705 whole entry Q102A): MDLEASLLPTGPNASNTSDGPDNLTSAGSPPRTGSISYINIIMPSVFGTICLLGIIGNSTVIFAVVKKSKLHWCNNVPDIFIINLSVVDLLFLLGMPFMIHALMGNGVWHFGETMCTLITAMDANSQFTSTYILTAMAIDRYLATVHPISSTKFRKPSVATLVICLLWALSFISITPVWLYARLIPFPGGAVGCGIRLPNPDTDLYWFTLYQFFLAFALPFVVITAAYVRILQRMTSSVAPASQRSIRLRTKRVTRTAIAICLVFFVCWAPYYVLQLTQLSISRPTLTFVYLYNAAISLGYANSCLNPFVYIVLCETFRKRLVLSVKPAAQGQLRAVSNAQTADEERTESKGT
T4 sequence (Q969V1 whole entry S183A): as the sequence (Q969V1 whole entry Y288A) above, with S183A, A288Y counted along it
T1 sequence (Q99705 whole entry I196A): as the sequence (Q99705 whole entry Q102A) above, with A102Q, I196A counted along it
T17 sequence (Q99705 whole entry Y272A): as the sequence (Q99705 whole entry Q102A) above, with A102Q, Y272A counted along it
T18 sequence (Q99705 whole entry Q127A): as the sequence (Q99705 whole entry Q102A) above, with A102Q, Q127A counted along it
T13 sequence (Q969V1 whole entry Y285A): as the sequence (Q969V1 whole entry Y288A) above, with Y285A, A288Y counted along it
T16 sequence (Q99705 whole entry): as the sequence (Q99705 whole entry Q102A) above, with A102Q counted along it
T14 sequence (Q99705 whole entry L103A): as the sequence (Q99705 whole entry Q102A) above, with A102Q, L103A counted along it
T2 sequence (Q99705 whole entry I297A): as the sequence (Q99705 whole entry Q102A) above, with A102Q, I297A counted along it
T6 sequence (Q99705 whole entry P285A): as the sequence (Q99705 whole entry Q102A) above, with A102Q, P285A counted along it
T12 sequence (Q969V1 whole entry L188A): as the sequence (Q969V1 whole entry Y288A) above, with L188A, A288Y counted along it
T8 sequence (Q99705 whole entry Y301A): as the sequence (Q99705 whole entry Q102A) above, with A102Q, Y301A counted along it

## CSCC[C@@H]1NC(=O)[C@@H](NC(=O)[C@H](CCCNC(=N)N)NC(=O)[C@H](CC(C)C)NC(=O)[C@H](CCSC)NC(=O)[C@H](CC(=O)O)NC(=O)[C@H](Cc2ccccc2)NC(=O)[C@@H](N)CC(=O)O)CSSC[C@@H](C(=O)N[C@@H](Cc2c[nH]c3ccccc23)C(=O)N[C@@H](CCC(N)=O)C(=O)N[C@H](C(=O)O)C(C)C)NC(=O)[C@@H]2CCCN2C(=O)[C@H](CCCNC(=N)N)NC(=O)[C@H](Cc2ccc(O)cc2)NC(=O)[C@H](C(C)C)NC(=O)[C@H](CCCNC(=N)N)NC(=O)CNC(=O)[C@H](CC(C)C)NC1=O [MCH, Melanin-concentrating hormone]
[1]
  Emax: 88 ± 3%
[2]
  Emax: 90 ± 5%
[3]; [21]
  EC50: 129 nM
[3]; AD293, mean ± S.E.M.
  Emax: 92 ± 2%
[4]
  Emax: 95 ± 1%
[5]
  Emax: 57 ± 6%
[6]
  Emax: 109 ± 1%
[7]; [21]
  EC50: 12600 nM
[7]; AD293, mean ± S.E.M.
  Emax: 96 ± 1%
[8]
  Emax: -21 ± 4%
[9]; [21]
  EC50: 27.5 nM
[9]; AD293, mean ± S.E.M.
  Emax: 101 ± 1%
[10]; [21]
  EC50: 182 nM
[10]; AD293, mean ± S.E.M.
  Emax: 90 ± 2%
[11]; [21]
  EC50: 1290 nM
[11]; AD293, mean ± S.E.M.
  Emax: 85%
[12]
  Emax: 101 ± 1%
[13]
  Emax: 92 ± 2%
[14]
  Emax: 107 ± 3%
[15]; [21]
  EC50: 1230 nM
[15]; AD293, mean ± S.E.M.
  Emax: 84 ± 2%
[16]
  Emax: 100%
[17]
  Emax: 97 ± 1%
[18]
  Emax: 97 ± 1%
[19]; AD293, IP-One HTRF, 37 °C 1 h, mean ± S.E.M., P 0.0012 vs WT
  EC50: 15.5 nM
[19]; AD293, mean ± S.E.M.
  Emax: 96%
[20]; [21]
  EC50: 33.1 nM
[20]; AD293, mean ± S.E.M.
  Emax: 98 ± 1%
